{"source": "patent US7253193B2", "about": "“Cyanoguanidine prodrugs” (LEO Pharma A/S, priority 2002, dated 2007)", "origin": "cited, not measured here", "key": {"[1]": {"system": "human lung and breast cancer cell lines"}, "[2]": {"system": "human lung cancer tumour xenograft"}, "human tumour cells": {"system": "human tumour cells", "details": "also against tumour cells resistant to conventional anticancer drugs such as paclitaxel"}}, "data": [{"smiles": "N#CNC(=Nc1ccncc1)NCCCCCCOc1ccc(Cl)cc1", "note": "[N-(6-(4-chlorophenoxy)hexyl)-N′-cyano-N″-(4-pyridyl)guanidine]", "values": [{"measurement": "antiproliferative activity in vitro", "setting": "[1]", "result": "high antiproliferative activity in vitro"}, {"measurement": "antitumour activity in the nude mouse model", "setting": "[2]", "result": "potent antitumour activity"}, {"measurement": "antitumour activity in vivo", "setting": "human tumour cells", "result": "substantial antitumour activity"}]}]}
